# Measured values from PubChem BioAssay AID1963952 (Xavier Lab, Infectious Disease and Microbiome Program, …, 2024).
# pEC50: −log10 of the molar value. Active and inactive are the calls of the source. No rule for the calls is given here.
# Target: Peptidyl-prolyl cis-trans isomerase FKBP1A (Homo sapiens) (UniProt P62942)
# Test: ligand binding to FKBP1A protein – biochemical, TR-FRET, dose response (AID 1963952)
# Settings: FKBP12 binding
# Sequence of Peptidyl-prolyl cis-trans isomerase FKBP1A (Homo sapiens) (P62942 whole entry, looked up): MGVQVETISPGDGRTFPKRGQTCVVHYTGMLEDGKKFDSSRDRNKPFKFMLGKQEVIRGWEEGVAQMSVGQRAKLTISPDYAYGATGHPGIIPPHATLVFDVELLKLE
pEC50,outcome,Compound
4.54,,CCC(C)(C)C(=O)C(=O)N1CCCC[C@H]1C(=O)N[C@H](CCc1ccc(OC)cc1)C(=O)N1[C@@H]2CC[C@H]1CC(NC(C)=O)C2 (stereo not given in full)
4.74,,CCC(C)(C)C(=O)C(=O)N1CCCC[C@H]1C(=O)N[C@H](CCc1ccc(OC)cc1)C(=O)N1[C@@H]2CC[C@H]1CC(Nc1nc(NCCc3sc(N)nc3C)nc(NCCn3cnc4ccccc43)n1)C2 (stereo not given in full)
4.46,,CCC(C)(C)C(=O)C(=O)N1CCCC[C@H]1C(=O)N[C@H](CCc1ccc(OC)cc1)C(=O)N1CC(Nc2nc(NCCc3sc(N)nc3C)nc(NCCn3cnc4ccccc43)n2)C1
4.53,,CCC(C)(C)C(=O)C(=O)N1CCCC[C@H]1C(=O)N[C@H](CCc1ccc(OC)cc1)C(=O)N1[C@@H]2CC[C@H]1CC(Nc1nc(NCCc3sc(N)nc3C)nc(N3CCn4ncnc4C3)n1)C2 (stereo not given in full)
,inactive,CC(=O)N1[C@@H]2CC[C@H]1CC(Nc1nc(NCCc3sc(N)nc3C)nc(N3CCn4ncnc4C3)n1)C2 (stereo not given in full)
4.75,,CCC(C)(C)C(=O)C(=O)N1CCCC[C@H]1C(=O)N[C@H](CCc1ccc(OC)cc1)C(=O)N1[C@@H]2CC[C@H]1CC(Nc1nc(NCCc3sc(N)nc3C)nc(N(C)Cc3nnc4n3CCC4)n1)C2 (stereo not given in full)
4.44,,CCC(C)(C)C(=O)C(=O)N1CCCC[C@H]1C(=O)N[C@H](CCc1ccc(OC)cc1)C(=O)N1[C@@H]2CC[C@H]1CC(Nc1nc(NCCc3ccccc3)nc(N3CCn4ncnc4C3)n1)C2 (stereo not given in full)
4.77,,CCC(C)(C)C(=O)C(=O)N1CCCC[C@H]1C(=O)O[C@H](CCc1ccccc1)C(=O)N1[C@@H]2CC[C@H]1CC(Nc1nc(NCCc3sc(N)nc3C)nc(N3CCn4ncnc4C3)n1)C2 (stereo not given in full)
4.43,,CCC(C)(C)C(=O)C(=O)N1CCCC[C@H]1C(=O)N[C@H](CCc1ccc(OC)cc1)C(=O)N1[C@@H]2CC[C@H]1CC(Nc1nc(NCCc3sc(N)nc3C)nc(NCc3ccnc(CO)c3)n1)C2 (stereo not given in full)
4.88,,CCC(C)(C)C(=O)C(=O)N1CCCC[C@H]1C(=O)N[C@H](CCc1ccc(OC)cc1)C(=O)N1CC[C@H](Nc2nc(NCCc3sc(N)nc3C)nc(N(C)Cc3nnc4n3CCC4)n2)C1
